From ChEMBL document CHEMBL1141332, “Cytotoxic metabolites from an Indonesian sponge Lendenfeldia sp” (J Nat Prod, 2007)

What was measured:
Type in all cases: functional
[1] = test system: U-251; experiment: Cytotoxicity against human U251cells
[2] = test system: LOX IMVI; experiment: Cytotoxicity against human LOX IMVI cells
[3] = test system: NCI-H460; experiment: Cytotoxicity against human NCI-H460 cells
[4] = test system: BT-549; experiment: Cytotoxicity against human BT549 cells
[5] = test system: PC-3; experiment: Cytotoxicity against human PC3 cells
[6] = test system: SF-295; experiment: Cytotoxicity against human SF295 cells
[7] = test system: UACC-62; experiment: Cytotoxicity against human UACC62 cells
[8] = test system: OVCAR-5; experiment: Cytotoxicity against human OVCAR5 cells
[9] = test system: HOP-92; experiment: Cytotoxicity against human HOP92 cells
[10] = test system: TK-10; experiment: Cytotoxicity against human TK10 cells
[11] = test system: M14; experiment: Cytotoxicity against human M14 cells
[12] = test system: SNB-75; experiment: Cytotoxicity against human SNB75 cells
[13] = test system: SNB-19; experiment: Cytotoxicity against human SNB19 cells; conditions: read-out: Log LC50 (the source's name) (converted)
[14] = test system: HL-60; experiment: Cytotoxicity against human HL60 cells; conditions: Homo sapiens, HL-60
[15] = test system: IGROV-1; experiment: Cytotoxicity against human IGROV1 cells
[16] = test system: KM12; experiment: Cytotoxicity against human KM12 cells
[17] = test system: MDA-MB-231; experiment: Cytotoxicity against human MDA-MB-231 cells
[18] = test system: A498; experiment: Cytotoxicity against human A498 cells
[19] = test system: NCI/ADR-RES; experiment: Cytotoxicity against human NCI/ADR-RES cells
[20] = test system: SK-MEL-2; experiment: Cytotoxicity against human SK-MEL-2 cells
[21] = test system: RPMI-8226; experiment: Cytotoxicity against human RPMI8226 cells
[22] = test system: DU-145; experiment: Cytotoxicity against human DU145 cells
[23] = test system: NCI-H322M; experiment: Cytotoxicity against human NCI-H322M cells
[24] = test system: MOLT-4; experiment: Cytotoxicity against human MOLT4 cells
[25] = test system: MCF7; experiment: Cytotoxicity against human MCF7 cells
[26] = test system: SK-OV-3; experiment: Cytotoxicity against human SK-OV-3 cells
[27] = test system: UACC-257; experiment: Cytotoxicity against human UACC257 cells
[28] = test system: HCC 2998; experiment: Cytotoxicity against human HCC2998 cells
[29] = test system: SW-620; experiment: Cytotoxicity against human SW620 cells
[30] = test system: A549; experiment: Cytotoxicity against human A549 cells
[31] = test system: NCI-H522; experiment: Cytotoxicity against human NCI-H522 cells
[32] = test system: HCT-116; experiment: Cytotoxicity against human HCT116 cells
[33] = test system: SF-539; experiment: Cytotoxicity against human SF539 cells
[34] = test system: SK-MEL-5; experiment: Cytotoxicity against human SK-MEL-5 cells
[35] = test system: HOP-62; experiment: Cytotoxicity against human HOP62 cells
[36] = test system: OVCAR-8; experiment: Cytotoxicity against human OVCAR8 cells
[37] = test system: RXF 393; experiment: Cytotoxicity against human RXF393 cells
[38] = test system: K562; experiment: Cytotoxicity against human K562 cells
[39] = test system: MDA-MB-435; experiment: Cytotoxicity against human MDA-MB-435 cells
[40] = test system: OVCAR-4; experiment: Cytotoxicity against human OVCAR4 cells
[41] = test system: 786-0; experiment: Cytotoxicity against human 786-0 cells
[42] = test system: SF-268; experiment: Cytotoxicity against human SF268 cells
[43] = test system: SK-MEL-28; experiment: Cytotoxicity against human SK-MEL-28 cells
[44] = test system: COLO 205; experiment: Cytotoxicity against human COLO205 cells
[45] = test system: HT-29; experiment: Cytotoxicity against human HT29 cells
[46] = read-out: Log LC50 (the source's name) (converted)

## CC(=O)C1=CC[C@H]2[C@]3(C)CC[C@H]4C(C)(C)CCC[C@]4(C(=O)O)[C@H]3CC(=O)[C@]2(C)[C@H]1C=O
[1]
  GI50: 1230 nM
[1]; [46]
  CC50: 5.01 µM
[1]; read-out: Log TGI (converted)
  TGI: 2450 nM
[2]
  GI50: 1450 nM
[2]; [46]
  CC50: 5.62 µM
[2]; read-out: Log TGI (converted)
  TGI: 2820 nM
[3]
  GI50: 1660 nM
[3]; [46]
  CC50: 8.71 µM
[3]; read-out: Log TGI (converted)
  TGI: 3.8 µM
[4]
  GI50: 1260 nM
  LC50: 6.17 µM
[4]; read-out: Log TGI (converted)
  TGI: 2750 nM
[5]
  GI50: 977 nM
  LC50: 18.2 µM
[5]; read-out: Log TGI (converted)
  TGI: 3.63 µM
[6]
  GI50: 1450 nM
[6]; [46]
  CC50: 6.92 µM
[6]; read-out: Log TGI (converted)
  TGI: 3.16 µM
[7]
  GI50: 1740 nM
[7]; [46]
  CC50: 5.89 µM
[7]; read-out: Log TGI (converted)
  TGI: 3.24 µM
[8]
  GI50: 1860 nM
[8]; [46]
  CC50: 8.91 µM
[8]; read-out: Log TGI (converted)
  TGI: 4.07 µM
[9]
  GI50: 1910 nM
[9]; [46]
  CC50: 7.41 µM
[9]; read-out: Log TGI (converted)
  TGI: 3.72 µM
[10]
  GI50: 1170 nM
  LC50: 6.61 µM
[10]; read-out: Log TGI (converted)
  TGI: 2820 nM
[11]
  GI50: 1820 nM
[11]; [46]
  CC50: 6.92 µM
[11]; read-out: Log TGI (converted)
  TGI: 3.55 µM
[12]
  GI50: 1820 nM
[12]; [46]
  CC50: 5.89 µM
[12]; read-out: Log TGI (converted)
  TGI: 3.31 µM
[13]
  CC50: 3.02 µM
[14]
  GI50: 282 nM
[14]; [46]
  CC50: 6.31 µM
[14]; read-out: Log TGI (converted)
  TGI: 1380 nM
[15]
  GI50: 2570 nM
[15]; [46]
  CC50: 50.1 µM
[15]; read-out: Log TGI (converted)
  TGI: 8.13 µM
[16]
  GI50: 1410 nM
[16]; [46]
  CC50: 21.4 µM
[16]; read-out: Log TGI (converted)
  TGI: 3.89 µM
[17]
  GI50: 1660 nM
  LC50: 6.31 µM
[17]; read-out: Log TGI (converted)
  TGI: 3.24 µM
[18]
  GI50: 1120 nM
  LC50: 15.8 µM
[18]; read-out: Log TGI (converted)
  TGI: 3.63 µM
[19]
  GI50: 1910 nM
  LC50: 8.91 µM
[19]; read-out: Log TGI (converted)
  TGI: 4.07 µM
[20]
  GI50: 2400 nM
[20]; [46]
  CC50: 37.2 µM
[20]; read-out: Log TGI (converted)
  TGI: 5.25 µM
[21]
  GI50: 603 nM
[21]; [46]
  CC50: 12.9 µM
[21]; read-out: Log TGI (converted)
  TGI: 2340 nM
[22]
  GI50: 1320 nM
  LC50: 5.5 µM
[22]; read-out: Log TGI (converted)
  TGI: 2690 nM
[23]
  GI50: 3.55 µM
[23]; [46]
  CC50: 42.7 µM
[23]; read-out: Log TGI (converted)
  TGI: 10.5 µM
[24]
  GI50: 257 nM
[24]; [46]
  CC50: 4.47 µM
[24]; read-out: Log TGI (converted)
  TGI: 912 nM
[25]
  GI50: 813 nM
  LC50: 51.3 µM
[25]; read-out: Log TGI (converted)
  TGI: 9.33 µM
[26]
  GI50: 3.02 µM
[26]; [46]
  CC50: 37.2 µM
[26]; read-out: Log TGI (converted)
  TGI: 10.2 µM
[27]
  GI50: 2400 nM
[27]; [46]
  CC50: 42.7 µM
[27]; read-out: Log TGI (converted)
  TGI: 6.46 µM
[28]
  GI50: 1620 nM
[28]; [46]
  CC50: 5.62 µM
[28]; read-out: Log TGI (converted)
  TGI: 3.02 µM
[29]
  GI50: 324 nM
[29]; [46]
  CC50: 3.39 µM
[29]; read-out: Log TGI (converted)
  TGI: 1120 nM
[30]
  GI50: 2570 nM
[30]; [46]
  CC50: 74.1 µM
[30]; read-out: Log TGI (converted)
  TGI: 12.6 µM
[31]
  GI50: 1740 nM
[31]; [46]
  CC50: 11.2 µM
[31]; read-out: Log TGI (converted)
  TGI: 4.17 µM
[32]
  GI50: 468 nM
[32]; [46]
  CC50: 4.07 µM
[32]; read-out: Log TGI (converted)
  TGI: 1620 nM
[33]
  GI50: 741 nM
[33]; [46]
  CC50: 4.57 µM
[33]; read-out: Log TGI (converted)
  TGI: 2040 nM
[34]
  GI50: 1450 nM
[34]; [46]
  CC50: 5.25 µM
[34]; read-out: Log TGI (converted)
  TGI: 2750 nM
[35]
  GI50: 1350 nM
[35]; [46]
  CC50: 5.75 µM
[35]; read-out: Log TGI (converted)
  TGI: 2750 nM
[36]
  GI50: 1320 nM
[36]; [46]
  CC50: > 100 µM
[36]; read-out: Log TGI (converted)
  TGI: 3.63 µM
[37]
  GI50: 1170 nM
[37]; read-out: Log TGI (converted)
  TGI: 2570 nM
[38]
  GI50: 2040 nM
[38]; [46]
  CC50: 20.9 µM
[38]; read-out: Log TGI (converted)
  TGI: 5.01 µM
[39]
  GI50: 1550 nM
  LC50: 6.17 µM
[39]; read-out: Log TGI (converted)
  TGI: 3.09 µM
[40]
  GI50: 813 nM
[40]; [46]
  CC50: 56.2 µM
[40]; read-out: Log TGI (converted)
  TGI: 4.68 µM
[41]
  GI50: 603 nM
[41]; [46]
  CC50: 4.37 µM
[41]; read-out: Log TGI (converted)
  TGI: 1910 nM
[42]
  GI50: 1200 nM
[42]; [46]
  CC50: 7.24 µM
[42]; read-out: Log TGI (converted)
  TGI: 2950 nM
[43]
  GI50: 355 nM
[43]; [46]
  CC50: 4.47 µM
[43]; read-out: Log TGI (converted)
  TGI: 1350 nM
[44]
  GI50: 794 nM
[44]; [46]
  CC50: 7.41 µM
[44]; read-out: Log TGI (converted)
  TGI: 2570 nM
[45]
  GI50: 257 nM
[45]; [46]
  CC50: > 100 µM
[45]; read-out: Log TGI (converted)
  TGI: 1620 nM
